What all share (type): cell-based
In assay [1] the test system is NCI-H460 large lung cancer cells. Kind of assay: Cancer cell growth inhibition assay, trypan blue exclusion (Ca-Pam particles). As to conditions: Homo sapiens, 48 h, pamidronate concentrations. The text has this:
NCI-H460 large lung cancer cells (American Type Culture Collection (ATCC)# HTB-177) were purchased from the Tissue Culture Facility of Lineberger Comprehensive Cancer Center at the University of North Carolina at Chapel Hill. The cell line was maintained as a suspension in RPMI-1640 growth medium (Cellgro®, Mediatech, Inc., Manassas, Virginia., United States of America) supplemented with 10% fetal bovine serum (Sigma, St. Louis, Missouri., United States of America) and 2% penicillin-streptomycin (Sigma, St. Louis, Missouri., United States of America).
Confluent H460 cells were counted from the culture flask using a hematocytometer. Cells were plated in 6-well plates at a cell density of 5×10^4 cells/well in 3 mL RPMI-1640 complete growth medium. The cells were incubated at 37° C. and 5% CO2 overnight. Pamidronate, and particle dispersions of Ca-Pam, lipid coated Ca-Pam, and AA-lipid coated Ca-Pam (80 μM) in RPMI-1640 media and additional media were added to wells, resulting in pamidronate concentrations (μM) of 0, 5, 10, 20, 40, and 80. Cells were incubated (37° C., 5% CO2) with free pamidronate or particle for 48 h. Viability was determined by the trypan blue exclusion assay.

For assay [2], the system named is H460 human lung carcinoma cells. Put plainly: Cell viability assay, trypan blue cell counts (A-Ca-Zol particles). To be noted: NCI-H460, 48 hrs. Here is the method: Four cell culturing plates were set-up for cell viability assays. In each well, 100,000 H460 human lung carcinoma cells were placed in each well with 3 mL of RPMI media (supplemented with 10% FBS and 2% PenStrep) and were allowed to incubate overnight for cell adhesion at 37° C. at 5% CO2.
20 μM stock solutions of zolendrate, bare particle (i.e., as synthesized A-Ca-Zol), RGD targeted particle and anisamide targeted particle were prepared so that treatment curves of 0 μM, 1 μM, 5 μM, 10 μM, 20 μM and […] were established in RPMI media. After individual treatment, the plates were placed back in the incubator for 48 hrs.
After incubation, media and treatment was removed from each well and cells were washed 2× with 1 mL of PBS. 1 mL of trypsin was added to each well and placed back in the incubator for 3 min. The cells and trypsin were then transferred to centrifuge tubes and centrifuged for 3 min and the cell pellet was then redistributed in 1 mL of media. Cell counts were taken using 20 μL of cells and 20 μL trypan blue on a hemocytometer.

For assay [3], the system named is human PC-3 prostate adenocarcinoma cells. Kind of assay: Cell viability assay in PC-3 cells (A-Ca-Zol particles). Here is the method: In addition, a cell viability assay was also performed in a similar manner, but using human PC-3 prostate adenocarcinoma cells. Cell viability results for PC-3 cells treated with either zoledronate or as synthesized A-Ca-Zol nanoparticles are provided in FIG. 24. The IC50's are estimated to be 3.1, and 0.8 for zoledronate and as-synthesized A-Ca-Zol, respectively.

The subject of assay [4] is NCI-H460 large lung cancer cells. Kind of assay: Cell viability, trypan blue exclusion (Mn-Zol particles). As to conditions: Homo sapiens, 48 h, zoledronate concentrations. The text has this: (§1) NCI-H460 large lung cancer cells (ATCC # HTB-177) and MCF-7 human breast cancer cells (ATCC # HTB-22) were purchased from the Tissue Culture Facility of Lineberger Comprehensive Cancer Center at the University of North Carolina at Chapel Hill. The cell line was maintained as a suspension in RPMI-1640 growth medium (Cellgro®, Mediatech, Inc., Manassas, Virginia., United States of America) supplemented with 10% fetal bovine serum (Sigma, St. Louis, Missouri., United States of America) and 2% penicillin-streptomycin (Sigma, St. Louis, Missouri, United States of America).
Confluent H460 cells were counted from the culture flask using a hematocytometer. Cells were plated in 6-well plates at a cell density of 5×10^4 cells/well in 3 mL RPMI-1640 complete growth medium. The cells were incubated at 37° C. and 5% CO2 overnight. Zoledronate, bare liposome, and particle dispersions of Mn-Zol and lipid coated Mn-Zol (20 μM) in RPMI-1640 media and additional media were added to wells, resulting in zoledronate concentrations (μM) of 0, 1.0, 2.5, 5, 10, and 20. Cells were incubated (37° C., 5% CO2) with free zoledronate, liposome, or particle for 48 h. Viability was determined by the trypan blue exclusion assay.

For assay [5], the system named is MCF-7 human breast cancer cells. Kind of assay: Cell viability, trypan blue exclusion (A-Mn-Zol particles). As to conditions: MCF7, MCF-7 cells, 48 h, zoledronate concentrations.
Text: as §1
Confluent MCF-7 cells were trypsinized (trypsin-EDTA, Sigma, St. Louis, Missouri, United States of America) and cell density was obtained from a hemocytometer. 6-well plates were seeded with 5.0×10^4 cells/well and a total of 3 mL media. The plates were incubated at 37° C. and 5% CO2 overnight. Amounts of zoledronate, liposomes, and particle dispersions in RPMI-1640 medium and additional media (5% phosphate buffered saline, Cellgro®, Mediatech, Inc., Manassas, Virginia., United States of America) were added to wells resulting in zoledronate concentrations of 0, 2.5, 5, 10, 20, and 40 μM. The plates were incubated at 37° C. and 5% CO2 for 48 h and viability was determined via the trypan blue exclusion assay. […]

The subject of a further assay is ASPC-1. Put plainly: Cytotoxicity assay against ASPC-1 (FIG. 35A). As to conditions: Homo sapiens, ASPC1. The text has this:
(§2) FIGS. 35A and 35B present data from cytotoxicity assays of Mn-Zol@DOPA, PEG-A-Zn-Zol, and AA-PEG-A-Mn-Zol particles against ASPC-1 (FIG. 35A) and MCF-7 cells (FIG. 35B).

The next assay deals with MCF-7 cells. Put plainly: Cytotoxicity assay against MCF-7 cells (FIG. 35B). To be noted: Homo sapiens, MCF7.
Text: as §2

A word on the IC50: it is the concentration at which inhibition is half-maximal. Low values mean greater potency in that assay, high ones weaker potency in that assay.

`NCCC(O)(P(=O)(O)O)P(=O)(O)O` [pamidronate] registered a 50% inhibitory concentration (IC50) in assay [1] of 65 µM. In other words, the double-digit micromolar range.

`O=P(O)(O)C(O)(Cn1ccnc1)P(=O)(O)O` [zoledronate]: the half-inhibitory concentration (IC50) is greater than 20 µM in assay [2]; 3.1 µM in assay [3]; greater than 20 µM in assay [4]; 9 µM in assay [5]; greater than 60 µM in the assay with ASPC-1; greater than 60 µM in the assay on MCF-7 cells.

These data come from patent US11872311B2, “Metal bisphosphonate nanoparticles for anti-cancer therapy and imaging and for treating bone disorders” (The University of North Carolina at Chapel Hill, priority 2011, dated 2024).
